Data reported in ChEMBL document CHEMBL3217631, “Potent sirtuin inhibition bestowed by l-2-amino-7-carboxamidoheptanoic acid (l-ACAH), a N-acetyl-lysine analog” (Medchemcomm, 2011).
Values belong to the compound of their own block, whether it stands above or below them. Activity calls are given as the source filed them. The rule behind the calls is not given here. Square brackets hold non-standard residues; d marks the D form. Peptide text beside a SMILES is read from it. Asu = N[C@@H](CCCCCC(=O)O)C(=O)O

Key:
[1] = biological target: T1, NAD-dependent protein deacetylase sirtuin-1 (Homo sapiens, UniProt Q96EB6); assay: Inhibition of lysine deacetylase activity of human full length GST-tagged SIRT1 expressed in Escherichia coli using H2N-HK-AcK-LM-COOH as substrate incubated with enzyme for 5 mins by reverse-phase HPLC analysis
T1 sequence (Q96EB6 whole entry): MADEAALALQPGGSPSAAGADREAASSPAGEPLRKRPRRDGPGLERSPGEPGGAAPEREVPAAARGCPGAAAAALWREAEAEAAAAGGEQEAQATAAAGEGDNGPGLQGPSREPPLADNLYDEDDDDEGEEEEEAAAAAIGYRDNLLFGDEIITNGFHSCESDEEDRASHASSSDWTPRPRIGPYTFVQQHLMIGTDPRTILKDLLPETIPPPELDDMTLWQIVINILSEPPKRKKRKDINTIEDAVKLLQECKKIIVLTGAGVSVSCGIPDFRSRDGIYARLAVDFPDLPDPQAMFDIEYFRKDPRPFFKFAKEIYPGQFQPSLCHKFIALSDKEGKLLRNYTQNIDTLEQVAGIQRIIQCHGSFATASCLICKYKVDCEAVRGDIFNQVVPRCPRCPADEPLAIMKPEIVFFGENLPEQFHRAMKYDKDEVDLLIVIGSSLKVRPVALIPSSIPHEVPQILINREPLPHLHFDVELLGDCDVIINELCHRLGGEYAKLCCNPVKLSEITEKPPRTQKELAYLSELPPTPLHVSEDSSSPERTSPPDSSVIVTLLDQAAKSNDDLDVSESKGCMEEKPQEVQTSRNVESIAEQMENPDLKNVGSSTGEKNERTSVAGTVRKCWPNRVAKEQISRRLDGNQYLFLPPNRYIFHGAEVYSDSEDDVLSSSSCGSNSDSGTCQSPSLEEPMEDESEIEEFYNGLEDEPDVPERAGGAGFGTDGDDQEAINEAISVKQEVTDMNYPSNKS

[2] = biological target: T2, NAD-dependent protein deacetylase sirtuin-1 (Homo sapiens) (UniProt Q96EB6); assay: Mechanism based inhibition of human full length GST-tagged SIRT1 expressed in Escherichia coli assessed as longer-lived stabilized catalytic intermediate 3 formation at 0.4 mM after 30 mins by MALDI-MS analysis in presence of NAD+ and 63% (v/v) H218O
T2 sequence (whole entry): T1 sequence (Q96EB6 whole entry)

[3] = biological target: T1, NAD-dependent protein deacetylase sirtuin-1; assay: Competitive inhibition of human full length GST-tagged SIRT1 expressed in Escherichia coli using H2N-HK-AcK-LM-COOH as substrate assessed as enzymatic deacetylation product formation incubated with enzyme for 5 mins by double reciprocal plot analysis
[4] = biological target: T2, NAD-dependent protein deacetylase sirtuin-1 (Homo sapiens); assay: Mechanism based inhibition of human full length GST-tagged SIRT1 expressed in Escherichia coli assessed as longer-lived stabilized catalytic intermediate formation at 0.4 mM after 30 mins by MALDI-MS analysis in presence of NAD+
[5] = biological target: T2, NAD-dependent protein deacetylase sirtuin-1 (Homo sapiens); assay: Irreversible inhibition of human full length GST-tagged SIRT1 expressed in Escherichia coli using H2N-HK-AcK-LM-COOH as substrate assessed as recovery of enzyme activity at 150 uM preincubated for 30 mins followed by rapid dilution of preformed enzyme-inhibitor complex measured after 2 to 30 mins by reverse-phase HPLC analysis
[6] = biological target: T2, NAD-dependent protein deacetylase sirtuin-1 (Homo sapiens); assay: Time-dependent inhibition of human full length GST-tagged SIRT1 expressed in Escherichia coli using H2N-HK-AcK-LM-COOH as substrate assessed as enzymatic deacetylation product formation at 5 to 10 uM by reverse-phase HPLC analysis
[7] = biological target: T2, NAD-dependent protein deacetylase sirtuin-1 (Homo sapiens); assay: Mechanism based inhibition of human full length GST-tagged SIRT1 expressed in Escherichia coli assessed as longer-lived stabilized catalytic intermediate 2 formation at 0.4 mM after 30 mins by MALDI-MS analysis in presence of NAD+ and 20% (v/v) methanol
[8] = biological target: T3, NAD-dependent protein deacetylase (Thermotoga maritima (strain ATCC 43589 / MSB8 / DSM 3109 / JCM 10099)) (UniProt Q9WYW0); assay: Mechanism based inhibition of Thermotoga maritima Sir2Tm assessed as longer-lived stabilized catalytic intermediate formation at 0.4 mM after 30 mins by MALDI-MS analysis in presence of NAD+
T3 sequence (whole entry): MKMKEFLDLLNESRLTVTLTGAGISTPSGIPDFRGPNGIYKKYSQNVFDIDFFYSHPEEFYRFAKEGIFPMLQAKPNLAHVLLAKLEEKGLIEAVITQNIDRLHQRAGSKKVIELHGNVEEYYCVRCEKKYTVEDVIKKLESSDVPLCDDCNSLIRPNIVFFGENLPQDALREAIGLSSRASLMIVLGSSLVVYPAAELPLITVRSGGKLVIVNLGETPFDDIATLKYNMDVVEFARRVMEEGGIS

[9] = biological target: T2, NAD-dependent protein deacetylase sirtuin-1 (Homo sapiens); assay: Inhibition of lysine deacetylase activity of human full length GST-tagged SIRT1 expressed in Escherichia coli using H2N-HK-AcK-LM-COOH as substrate at 500 uM incubated with enzyme for 5 mins by reverse-phase HPLC analysis
[10] = biological target: T2, NAD-dependent protein deacetylase sirtuin-1 (Homo sapiens); assay: Inhibition of SIRT1 in human HCT116 cells assessed as enhancement of p53 acetylation at K382 position at 5 uM after 8 hrs by Western blot analysis; type: cell-based; details: HCT-116
[11] = biological target: T2, NAD-dependent protein deacetylase sirtuin-1 (Homo sapiens); assay: Inhibition of SIRT1 in human HCT116 cells assessed as enhancement of p53 acetylation at K382 position after 8 hrs by Western blot analysis; type: cell-based; details: HCT-116
[12] = biological target: T2, NAD-dependent protein deacetylase sirtuin-1 (Homo sapiens); assay: Inhibition of SIRT1 in human HCT116 cells assessed as enhancement of p53 acetylation at K382 position at 50 uM after 8 hrs by Western blot analysis; type: cell-based; details: HCT-116
[13] = biological target: T4, Histone deacetylase 8 (Homo sapiens) (UniProt Q9BY41); assay: Inhibition of human full length HDAC8 using CH3CONH-RH-AcK-(AcK)-CONH2 as substrate assessed as enzymatic deacetylation product formation measured at 500 uM after 1 hr by HPLC analysis
T4 sequence (whole entry): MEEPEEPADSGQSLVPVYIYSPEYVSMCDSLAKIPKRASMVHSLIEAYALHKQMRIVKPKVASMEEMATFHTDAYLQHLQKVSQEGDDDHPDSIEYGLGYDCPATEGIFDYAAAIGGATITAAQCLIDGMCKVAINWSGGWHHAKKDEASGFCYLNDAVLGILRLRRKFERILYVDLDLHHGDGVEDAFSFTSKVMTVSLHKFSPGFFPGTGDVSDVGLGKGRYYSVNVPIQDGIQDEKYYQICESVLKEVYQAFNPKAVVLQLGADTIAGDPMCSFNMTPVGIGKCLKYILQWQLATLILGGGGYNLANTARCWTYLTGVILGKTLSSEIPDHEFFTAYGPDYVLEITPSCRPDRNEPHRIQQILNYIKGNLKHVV

IC50 [1]: > 1000 µM
SMILES: NC(=O)CCCCC[C@H](NC(=O)OCc1ccccc1)C(=O)Nc1ccccc1

inhibition [2]: Active
Ki [3]: 2.6 µM
IC50 [1]: 11.7 µM
inhibition [4]: Active
Activity [5]: inactive
inhibition [6]: Active
inhibition [7]: Active
inhibition [8]: Active
SMILES: CSCC[C@H](NC(=O)[C@H](CC(C)C)NC(=O)[C@H](CCCCCC(N)=O)NC(=O)[C@H](CCCCN)NC(=O)[C@H](Cc1cnc[nH]1)NC(C)=O)C(N)=O (Ac-HK[Asu](NH2)LM-NH2)

Activity [10]: inactive
Activity [11]: Dose-dependent effect
Activity [12]: Active
SMILES: CC(=O)NCCCC[C@H](NC(=O)[C@H](CCCCCC(N)=O)NC(=O)[C@H](CCCCNC(C)=O)NC(C)=O)C(N)=O (Ac-Lys(Ac)-[Asu](NH2)-Lys(Ac)-NH2)

Further lines, the compound ahead of its results:

SMILES: COC(=O)CCCCC[C@H](NC(=O)[C@H](CCCCN)NC(=O)[C@H](Cc1cnc[nH]1)NC(C)=O)C(=O)N[C@@H](CC(C)C)C(=O)N[C@@H](CCSC)C(N)=O (Ac-HK[Asu](OMe)LM-NH2)
inhibition [9]: inactive

SMILES: CC(=O)NCCCC[C@H](NC(=O)[C@H](Cc1cnc[nH]1)NC(=O)[C@H](CCCNC(=N)N)NC(C)=O)C(=O)N[C@@H](CCCCCC(N)=O)C(N)=O (Ac-RHK(Ac)[Asu](NH2)-NH2)
inhibition [13]: 12%
